# Target: Sphingosine 1-phosphate receptor 1 (Homo sapiens, UniProt P21453)
# Assay: S1P1 receptor agonists, dose response, cell-based, agonist mode, 60K MLSMR set (AID 468)
# Conditions: not given
# Sequence of Sphingosine 1-phosphate receptor 1 (P21453 whole entry): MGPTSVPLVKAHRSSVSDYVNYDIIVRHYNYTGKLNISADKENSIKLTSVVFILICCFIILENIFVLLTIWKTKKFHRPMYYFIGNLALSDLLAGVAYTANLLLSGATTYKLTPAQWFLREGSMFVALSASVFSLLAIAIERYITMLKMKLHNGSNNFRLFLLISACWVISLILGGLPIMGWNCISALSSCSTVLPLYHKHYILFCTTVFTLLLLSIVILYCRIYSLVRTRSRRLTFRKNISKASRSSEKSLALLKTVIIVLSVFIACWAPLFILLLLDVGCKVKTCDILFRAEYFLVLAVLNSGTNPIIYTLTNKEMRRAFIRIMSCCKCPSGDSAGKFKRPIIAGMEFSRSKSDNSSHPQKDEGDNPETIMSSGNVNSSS
row,EC50 [µM],Compound
1,6.17,CC(C)COC(=O)NCCOC(=O)Nc1cccc(Cl)c1 [2-(2-methylpropoxycarbonylamino)ethyl N-(3-chlorophenyl)carbamate]
2,> 30,"O=C(CSCC(=O)N1CCCCC1)Nc1nc(-c2cccs2)cs1 [2-(2-oxidanylidene-2-piperidin-1-yl-ethyl)sulfanyl-N-(4-thiophen-2-yl-1,3-thiazol-2-yl)ethanamide]"
3,1.18,"CCOc1ccc(-c2nnc(-c3ccco3)o2)cc1OCC [2-(3,4-Diethoxy-phenyl)-5-furan-2-yl-[1,3,4]oxadiazole]"
4,5.93,"CCOc1ccc(-c2nnc(-c3cccs3)o2)cc1OCC [2-(3,4-Diethoxy-phenyl)-5-thiophen-2-yl-[1,3,4]oxadiazole]"
5,3.28,"CCOc1ccc(-c2nnc(-c3cccnc3)o2)cc1OCC [2-(3,4-diethoxyphenyl)-5-(3-pyridinyl)-1,3,4-oxadiazole]"
6,> 30,"Cn1c(C(=O)N2CCc3ccccc3C2)cc2oc3ccccc3c21 [2-(3,4-dihydroisoquinolin-2(1H)-ylcarbonyl)-1-methyl-1H-[1]benzofuro[3,2-b]pyrrole]"
7,8.03,"COc1ccc(-c2nc3cc(NC(=O)Cc4ccc(OC)c(OC)c4)ccc3o2)cc1 [2-(3,4-dimethoxyphenyl)-N-[2-(4-methoxyphenyl)-1,3-benzoxazol-5-yl]acetamide]"
8,2.36,"COc1ccccc1Oc1ccc2c(c1)C(=O)N(c1cccc(O)c1)C2=O [2-(3-hydroxyphenyl)-5-(2-methoxyphenoxy)isoindole-1,3-dione]"
9,2.44,"O=C(CSC1=NCCS1)Nc1ccnc2ccccc12 [2-(4,5-dihydro-1,3-thiazol-2-ylsulfanyl)-N-quinolin-4-yl-ethanamide]"
10,> 3,"O=C(CSc1ncnc2c1oc1ccccc12)N1CCCc2ccccc21 [2-(4-benzofuro[3,2-d]pyrimidinylthio)-1-(3,4-dihydro-2H-quinolin-1-yl)ethanone]"
11,7.92,N#Cc1nc(-c2ccc(OCc3ccccc3)cc2)oc1NCc1cccnc1 [2-(4-benzoxyphenyl)-5-(3-pyridylmethylamino)oxazole-4-carbonitrile]
12,3.22,CN(C)c1oc(-c2ccc(OCc3ccccc3)cc2)nc1C#N [2-(4-benzoxyphenyl)-5-(dimethylamino)oxazole-4-carbonitrile]
13,3.21,CNc1oc(-c2ccc(OCc3ccccc3)cc2)nc1C#N [2-(4-benzoxyphenyl)-5-(methylamino)oxazole-4-carbonitrile]
14,0.217,"COc1ccccc1Oc1ccc2c(c1)C(=O)N(c1ccc(O)cc1)C2=O [2-(4-hydroxyphenyl)-5-(2-methoxyphenoxy)isoindole-1,3-dione]"
15,> 95,"CCCOc1ccc(-c2nnc(-c3ccncc3)o2)cc1 [2-(4-propoxyphenyl)-5-(4-pyridyl)-1,3,4-oxadiazole]"
16,5.09,"O=C(CSc1nnc(Cn2nnc3ccccc32)o1)N(Cc1ccc(F)cc1)c1ccccc1 [2-(5-Benzotriazol-1-ylmethyl-[1,3,4]oxadiazol-2-ylsulfanyl)-N-(4-fluoro-benzyl)-N-phenyl-acetamide]"
17,9.9,COC(=O)c1ccc2c(=O)n(C3CCCCC3)c(SCC#N)nc2c1 [2-(cyanomethylthio)-3-cyclohexyl-4-keto-quinazoline-7-carboxylic acid methyl ester]

row,EC50 [µM],Compound
1,> 30,"CCOC(=O)c1sc2nc(NC(=O)C3CCCCC3)sc2c1C [2-(cyclohexanecarbonylamino)-6-methyl-thieno[2,3-d]thiazole-5-carboxylic acid ethyl ester]"
2,4.83,"CCCCNc1cc(C)nc(NCc2ccccc2)n1 [2-N-benzyl-4-N-butyl-6-methylpyrimidine-2,4-diamine]"
3,5.25,COc1ccc(-n2nnnc2S(=O)(=O)CC(=O)N2CCCCC2)cc1 [2-[1-(4-methoxyphenyl)tetrazol-5-yl]sulfonyl-1-piperidin-1-ylethanone]
4,5.41,"Cc1cc(C(=O)CSc2nc3ccccc3c(=O)n2C)c(C)n1Cc1ccc2c(c1)OCO2 [2-[2-[1-(1,3-benzodioxol-5-ylmethyl)-2,5-dimethyl-pyrrol-3-yl]-2-oxidanylidene-ethyl]sulfanyl-3-methyl-quinazolin-4-one]"
5,4.29,"CCOC(=O)CN1C(=O)C(C)(C)Oc2ccc(C(=O)Nc3ccccc3OC)cc21 [2-[3-keto-6-[(2-methoxyphenyl)carbamoyl]-2,2-dimethyl-1,4-benzoxazin-4-yl]acetic acid ethyl ester]"
6,7.9,"Cc1cc(N2CCN(c3nc4ccccc4s3)CC2)n2ncnc2n1 [2-[4-(5-methyl-[1,2,4]triazolo[1,5-a]pyrimidin-7-yl)-1-piperazinyl]-1,3-benzothiazole]"
7,2.43,"Cc1ccc(C(C)C)c(OCc2ccc(-c3nnco3)cc2)c1 [2-[4-[(2-isopropyl-5-methyl-phenoxy)methyl]phenyl]-1,3,4-oxadiazole]"
8,7.68,"O=S1(=O)C=C(Sc2nc3ccccc3s2)c2ccccc21 [2-[(1,1-dioxido-1-benzothien-3-yl)thio]-1,3-benzothiazole]"
9,9.63,"COC(=O)c1sc(NC(=O)c2ccc(OC)cc2OC)nc1C [2-[(2,4-dimethoxybenzoyl)amino]-4-methyl-thiazole-5-carboxylic acid methyl ester]"
10,0.132,"Cc1cc(C=c2sc3nc4ccccc4n3c2=O)c(C)n1-c1ccccn1 [2-[(2,5-dimethyl-1-pyridin-2-yl-pyrrol-3-yl)methylidene]-[1,3]thiazolo[3,2-a]benzimidazol-1-one]"
11,1.63,"Cc1ccccc1-c1nnc(SCc2ccccc2F)o1 [2-[(2-fluorobenzyl)thio]-5-(2-methylphenyl)-1,3,4-oxadiazole]"
12,1.78,"Cc1ccc(-c2nnc(SCc3ccccc3F)o2)cc1 [2-[(2-fluorobenzyl)thio]-5-(4-methylphenyl)-1,3,4-oxadiazole]"
13,4.52,"Cc1cccc(N2CCN(C(=O)CSCc3c(C)noc3C)CC2)c1C [2-[(3,5-dimethyl-1,2-oxazol-4-yl)methylsulfanyl]-1-[4-(2,3-dimethylphenyl)piperazin-1-yl]ethanone]"
14,5.59,"CCn1c(SCC(=O)Nc2nc3ccc(C)cc3s2)nc2c(c1=O)SC(C)C2 (stereo not given) [2-[(3-ethyl-4-keto-6-methyl-6,7-dihydrothieno[3,2-d]pyrimidin-2-yl)thio]-N-(6-methyl-1,3-benzothiazol-2-yl)acetamide]"
15,3.92,"Clc1ccc(CSc2nnc(-c3ccncc3)o2)cc1 [2-[(4-chlorobenzyl)thio]-5-(4-pyridyl)-1,3,4-oxadiazole]"
16,2.46,"Cc1cc(C(=O)CSc2nnc(-c3ccncc3)n2-c2ccccc2)c(C)n1C [2-[(4-phenyl-5-pyridin-4-yl-1,2,4-triazol-3-yl)sulfanyl]-1-(1,2,5-trimethylpyrrol-3-yl)ethanone]"
17,> 10,"CC(C)OC(=O)CSc1nc(N)c(C#N)c(-c2cccs2)c1C#N [2-[(6-amino-3,5-dicyano-4-thiophen-2-yl-2-pyridinyl)thio]acetic acid propan-2-yl ester]"

row,Compound,EC50 [µM]
1,"O=C1C2CCCN2C(c2cccnc2)N1c1cccc(Cl)c1 (stereo not given) [2-(3-chlorophenyl)-3-(3-pyridinyl)-5,6,7,7a-tetrahydro-3H-pyrrolo[1,2-c]imidazol-1-one]",> 95.1

# Same assay, conditions: inactive by the depositor's call
row,EC50 [µM],Compound
1,16.3,"CCOC(=O)c1ccc2nc(NC(=O)c3ccco3)sc2c1 [2-(2-furoylamino)-1,3-benzothiazole-6-carboxylic acid ethyl ester]"
2,10.4,"O=S(=O)(CCSc1ccccn1)c1nc2ccccc2s1 [2-(2-pyridin-2-ylsulfanylethylsulfonyl)-1,3-benzothiazole]"
3,20,"Cc1cc(C)n(-c2nc3ccccc3c(=O)n2OCCOc2ccccc2)n1 [2-(3,5-dimethyl-1-pyrazolyl)-3-(2-phenoxyethoxy)-4-quinazolinone]"
4,25.3,"Clc1ccc(-c2nc3nc4ccccc4nc3n2Cc2ccco2)cc1 [2-(4-chlorophenyl)-3-(2-furanylmethyl)imidazo[4,5-b]quinoxaline]"
5,20.9,"c1ccc(CSc2nnc(-c3cccs3)o2)cc1 [2-(benzylthio)-5-(2-thienyl)-1,3,4-oxadiazole]"
6,16.8,"CCOc1nc(-c2ccccc2)ccc1-c1noc(-c2ccco2)n1 [2-Ethoxy-3-(5-furan-2-yl-[1,2,4]oxadiazol-3-yl)-6-phenyl-pyridine]"
7,10.1,"CN1CCN(C(=O)CSc2nc(-c3cccs3)cc(-c3cccs3)c2C#N)CC1 [2-[2-(4-methylpiperazin-1-yl)-2-oxidanylidene-ethyl]sulfanyl-4,6-dithiophen-2-yl-pyridine-3-carbonitrile]"
8,17.4,"Cc1cc(C(=O)CN2C(=O)c3ccccc3C2=O)c(C)n1Cc1cccs1 [2-[2-[2,5-dimethyl-1-(2-thenyl)pyrrol-3-yl]-2-keto-ethyl]isoindoline-1,3-quinone]"
9,13.8,CCOC(=O)Cc1csc(NC(=O)c2ccc(Br)s2)n1 [2-[2-[(5-bromothiophene-2-carbonyl)amino]thiazol-4-yl]acetic acid ethyl ester]
10,12.2,"CC1CCN(S(=O)(=O)c2ccc3c(c2)oc(=O)n3CC(=O)NCc2ccc3c(c2)OCO3)CC1 [2-[2-keto-6-(4-methylpiperidino)sulfonyl-1,3-benzoxazol-3-yl]-N-piperonyl-acetamide]"
11,57.3,COc1ccc(OCCCSc2ncccn2)cc1 [2-[3-(4-methoxyphenoxy)propylsulfanyl]pyrimidine]
12,12,"CCOC(=O)c1sc2nc(NC(=O)C(C)(C)C)sc2c1C [2-[(2,2-dimethyl-1-oxopropyl)amino]-6-methyl-5-thieno[2,3-d]thiazolecarboxylic acid ethyl ester]"
13,41.8,"Clc1ccc(CSc2nnc(-c3ccncc3)o2)c(Cl)c1 [2-[(2,4-dichlorobenzyl)thio]-5-(4-pyridyl)-1,3,4-oxadiazole]"
14,13.9,"N#Cc1nc(COc2ccc(Cl)cc2Cl)oc1N1CCN(c2ccccc2)CC1 [2-[(2,4-dichlorophenoxy)methyl]-5-(4-phenyl-1-piperazinyl)-4-oxazolecarbonitrile]"
15,13.2,"Cc1ccc2nc(NC(=O)CSc3nc4c(c(=O)n3C)SC(C)C4)sc2c1 (stereo not given) [2-[(3,6-dimethyl-4-oxidanylidene-6,7-dihydrothieno[3,2-d]pyrimidin-2-yl)sulfanyl]-N-(6-methyl-1,3-benzothiazol-2-yl)ethanamide]"

# Source: BindingDB's records for doi:10.7270/Q2251GJ9 (The Scripps Research Institute Molecular Screening Center, 2007)
